Data published in US9957274B2, “Indane inhibitors of EED and methods of their use” (AbbVie Inc., priority 2016, dated 2018).
Where two headings read alike, the source gives them in different places.

Experiments:
Pfeiffer cells = assay: CTG cell viability assay (CellTiter-Glo); assay type: cell-based; settings: Homo sapiens, 240 h
Protocol: 1,000 cells were plated into each well of 96-well Corning CellBing cell culture plates and incubated overnight at 37° C. in a humidified CO2 incubator. […] The cell culture plates were then incubated for 10 more days. CTG cell viability assay was performed on the cell culture samples by using CellTiter-Glo® Luminescent Cell Viability Assay Kit (Promega).

[1] = test system: H3K27me3 in OCILY19 cells; assay: H3K27me3 AlphaLISA assay in OCILY19 cells; assay type: cell-based; settings: Homo sapiens, OCI-LY19, 144 h, 6 days with compound, read-out: OCILY-19 IC50
Protocol: (§1) 5,000 cells were plated into each well of 96-well Corning CellBing cell culture plates and incubated overnight at 37° C. in a humidified CO2 incubator. […] The cell culture plates were then incubated for 6 more days. H3K27me3 AlphaLISA assay was performed on the cell culture samples by using AlphaLISAR® H3K27me3 Cellular Detection Kit (PerkinElmer) and 96-well white half-area plates (PerkinElmer).

H3K27me3 in G401 cells = assay: H3K27me3 AlphaLISA assay in G401 cells; assay type: cell-based; settings: Homo sapiens, G-401, 144 h, 6 days with compound
Protocol: as §1, with “G401 cells (ATCC catalog # CRL-1441) were maintained in McCoy's 5a medium (ATCC) supplemented with 10% heat-inactivated FBS (HyClone) at 37° C. in a humidified CO2 incubator. OCILY19 cells (DSMZ catalog #ACC 528) were maintained in IMDM (Invitrogen) supplemented with 10% human serum (Sigma) at 37° C. in a humidified CO2 incubator. 5,000” for “5,000”

EED = EED (Homo sapiens, UniProt O75530); assay: EED TR-FRET Binding Assay (modified LanthaScreen competition assay)
Method in brief: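 Competition binding in a modified LanthaScreen format, in 20 mM Tris-HCl pH 7.5, 200 mM NaCl, 0.01% Tween-20, 10 uM DTT and 0.05% BSA. Reactions ran 1 hour at 25° C before TR-FRET detection.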

[2] = Pfeiffer cells, 10 days with compound, CellTiter-Glo, read-out: Cell Proliferation IC50

EED, sequence (O75530 whole entry): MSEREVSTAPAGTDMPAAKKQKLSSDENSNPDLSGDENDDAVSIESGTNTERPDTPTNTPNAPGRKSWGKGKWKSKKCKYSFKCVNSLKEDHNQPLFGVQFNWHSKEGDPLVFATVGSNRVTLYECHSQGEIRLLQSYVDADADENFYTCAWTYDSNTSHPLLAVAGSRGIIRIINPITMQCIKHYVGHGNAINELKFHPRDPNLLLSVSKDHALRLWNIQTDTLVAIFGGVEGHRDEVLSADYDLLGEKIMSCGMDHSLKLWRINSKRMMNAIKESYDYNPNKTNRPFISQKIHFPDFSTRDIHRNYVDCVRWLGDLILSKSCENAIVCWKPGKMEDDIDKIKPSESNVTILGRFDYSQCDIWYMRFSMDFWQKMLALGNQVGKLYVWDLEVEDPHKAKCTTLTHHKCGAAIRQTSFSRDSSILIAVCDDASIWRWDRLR

| SMILES | IC50 (Pfeiffer cells; [2]) | IC50 [1] | IC50 (H3K27me3 in G401 cells) | IC50 (EED) | IC50 (Pfeiffer cells; Pfeiffer, read-out: Cell Proliferation IC50 (uM)) |
| --- | --- | --- | --- | --- | --- |
| CN(C)C(=O)Cn1cc(-c2ccc([C@@H]3CN(C4CCc5cccc(F)c54)C[C@H]3N(C)C)cn2)cn1 (mixture of isomers) [Example 159, rac-2-(4-{5-[(3R,4S)-4-(dimethylamino)-1-(7-fluoro-2,3-dihydro-1H-inden-1-yl)pyrrolidin-3-yl]pyridin-2-yl}-1H-pyrazol-1-yl)-N,N-dimethylacetamide] | 0.246 µM | 237 nM | 158 nM | 1.14 nM |  |
| CN(C)[C@@H]1CN(C2CCc3cccc(F)c32)C[C@H]1c1ccc(N2CCN(C(=O)CS(N)(=O)=O)CC2)nc1 (mixture of isomers) [Example 160, rac-2-(4-{5-[(3R,4S)-4-(dimethylamino)-1-(7-fluoro-2,3-dihydro-1H-inden-1-yl)pyrrolidin-3-yl]pyridin-2-yl}piperazin-1-yl)-2-oxoethane-1-sulfonamide] | 0.301 µM | 152 nM | 190 nM | 1.06 nM |  |
| CNC(=O)Cn1cc(-c2ccc([C@@H]3CN(C4CCc5cccc(F)c54)C[C@H]3N(C)C)cn2)cn1 (mixture of isomers) [Example 161, rac-2-(4-{5-[(3R,4S)-4-(dimethylamino)-1-(7-fluoro-2,3-dihydro-1H-inden-1-yl)pyrrolidin-3-yl]pyridin-2-yl}-1H-pyrazol-1-yl)-N-methylacetamide] | 0.293 µM | 571 nM | 151 nM | 0.669 nM |  |
| CN(C)[C@H]1CN(C2CCc3cccc(F)c32)C[C@@H]1C1CCN(c2ncc(C(N)=O)s2)CC1 (mixture of isomers) [Example 162, rac-2-{4-[(3S,4R)-4-(dimethylamino)-1-(7-fluoro-2,3-dihydro-1H-inden-1-yl)pyrrolidin-3-yl]piperidin-1-yl}-1,3-thiazole-5-carboxamide] | 0.216 µM | 492 nM | 291 nM | 0.646 nM |  |
| CN(C)[C@H]1CN(C2CCc3cccc(F)c32)C[C@@H]1c1cn(C)c2ncccc12 (mixture of isomers) [Example 164, rac-(3R,4S)-1-(7-fluoro-2,3-dihydro-1H-inden-1-yl)-N,N-dimethyl-4-(1-methyl-1H-pyrrolo[2,3-b]pyridin-3-yl)pyrrolidin-3-amine] | 0.148 µM | 461 nM | 291 nM | 0.494 nM |  |
| CN(C)[C@H]1CN(C2CCc3cccc(F)c32)C[C@@H]1C1CCN(c2ccc(C(N)=O)nn2)CC1 (mixture of isomers) [Example 165, rac-6-{4-[(3S,4R)-4-(dimethylamino)-1-(7-fluoro-2,3-dihydro-1H-inden-1-yl)pyrrolidin-3-yl]piperidin-1-yl}pyridazine-3-carboxamide] | 0.286 µM | 272 nM | 55.9 nM | 0.48 nM |  |
| CN(C)[C@H]1CN(C2CCc3cccc(F)c32)C[C@@H]1C1CCN(c2ccc(C(N)=O)cc2)CC1 (mixture of isomers) [Example 166, rac-4-{4-[(3S,4R)-4-(dimethylamino)-1-(7-fluoro-2,3-dihydro-1H-inden-1-yl)pyrrolidin-3-yl]piperidin-1-yl}benzamide] | 0.129 µM | 275 nM | 228 nM | 0.454 nM |  |
| CN(C)[C@H]1CN(C2CCc3cccc(F)c32)C[C@@H]1C1CCN(c2ccc(C(N)=O)cn2)CC1 (mixture of isomers) [Example 167, rac-6-{4-[(3S,4R)-4-(dimethylamino)-1-(7-fluoro-2,3-dihydro-1H-inden-1-yl)pyrrolidin-3-yl]piperidin-1-yl}pyridine-3-carboxamide] | 0.143 µM | 267 nM | 131 nM | 0.399 nM |  |
| CC(=O)N1CCN(c2ccc([C@H]3CN([C@H]4CCc5cccc(F)c54)C[C@@H]3N(C)C)cc2)CC1 [Example 45, 1-[4-(4-{(3S,4R)-4-(dimethylamino)-1-[(1S)-7-fluoro-2,3-dihydro-1H-inden-1-yl]pyrrolidin-3-yl}phenyl)piperazin-1-yl]ethan-1-one] |  | 43.3 nM | 31.1 nM | 0.303 nM | 0.0284 µM |
| CN(C)[C@H]1CN(C2CCc3cccc(F)c32)C[C@@H]1c1cn(C)c2c(C(=O)N3CC(F)C3)cccc12 (stereo partly drawn) [Example 102, {3-[(3S,4R)-4-(dimethylamino)-1-(7-fluoro-2,3-dihydro-1H-inden-1-yl)pyrrolidin-3-yl]-1-methyl-1H-indol-7-yl}(3-fluoroazetidin-1-yl)methanone] | 0.0736 µM | 101 nM | 40.7 nM | 0.335 nM |  |
| CN(C)[C@H]1CN(C2CCc3cccc(F)c32)C[C@@H]1c1cn(C)c2c(C(=O)N3CC(O)C3)cccc12 (stereo partly drawn) [Example 105, {3-[(3S,4R)-4-(dimethylamino)-1-(7-fluoro-2,3-dihydro-1H-inden-1-yl)pyrrolidin-3-yl]-1-methyl-1H-indol-7-yl}(3-hydroxyazetidin-1-yl)methanone] | 0.039 µM | 27.1 nM | 56.4 nM | 0.347 nM |  |
| CN(C)[C@H]1CN(C2CCc3cccc(F)c32)C[C@@H]1c1cn(C)c2c(C(=O)N3CCN(S(=O)(=O)N4CCC4)CC3)cccc12 (stereo partly drawn) [Example 132, [4-(azetidine-1-sulfonyl)piperazin-1-yl]{3-[(3S,4R)-4-(dimethylamino)-1-(7-fluoro-2,3-dihydro-1H-inden-1-yl)pyrrolidin-3-yl]-1-methyl-1H-indol-7-yl}methanone] | 0.0943 µM | 162 nM | 63.3 nM | 1.44 nM |  |
| CN(C)[C@H]1CN(C2CCc3cccc(F)c32)C[C@@H]1c1cn(C)c2c(C(=O)N3CCN(S(=O)(=O)N4CC(C#N)C4)CC3)cccc12 (stereo partly drawn) [Example 133, 1-(4-{3-[(3S,4R)-4-(dimethylamino)-1-(7-fluoro-2,3-dihydro-1H-inden-1-yl)pyrrolidin-3-yl]-1-methyl-1H-indole-7-carbonyl}piperazine-1-sulfonyl)azetidine-3-carbonitrile] | 0.133 µM | 206 nM | 61.5 nM | 1.45 nM |  |
